Like-named read-outs stand apart in the source and are kept apart here.
Key:
Type in all cases: binding
[1] = target: T1, GST-CIB1 : F-scrambled peptide (Homo sapiens, UniProt Q99828); assay: FP scrambled-peptide counter screen, 1536-well format; details: for IC50: read-out: IC50 [μM] (counterscreen)
T1 construct: made in house; host or cells: BL-21 plus RIL cells (E. coli)
T1 sequence (Q99828 1-191): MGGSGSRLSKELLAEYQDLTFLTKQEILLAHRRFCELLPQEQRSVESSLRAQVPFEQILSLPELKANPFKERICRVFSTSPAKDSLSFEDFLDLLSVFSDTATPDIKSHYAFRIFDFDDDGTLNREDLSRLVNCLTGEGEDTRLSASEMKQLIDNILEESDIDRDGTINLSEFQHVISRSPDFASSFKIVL

[2] = target: T2, CIB1 and αIIb interaction (CIB1-GST : F-αIIb peptide) (Homo sapiens, UniProt Q99828); assay: FP assay, 1536-well qHTS format (primary and confirmatory screen)
T2 construct: made in house; host or cells: BL-21 plus RIL cells (E. coli)
T2 sequence (Q99828 1-191): T1 sequence (Q99828 1-191)

[3] = target: T3, CIB1 and αIIb interaction (GST-CIB1 : F-αIIb peptide) (Homo sapiens, UniProt Q99828); assay: FP assay, 384-well format (screen); set-up: 384-well SCREEN Efficacy (%): concentration or dose not given beside the values; details: for IC50: read-out: 384-well SCREEN IC50
T3 construct: made in house; host or cells: BL-21 plus RIL cells (E. coli)
T3 sequence (Q99828 1-191): T1 sequence (Q99828 1-191)

[4] = target: T1, GST-CIB1 : F-scrambled peptide; assay: FP scrambled-peptide counter screen, 384-well format; details: for IC50: read-out: 384-well COUNTERSCREEN IC50
[5] = confirmatory screen, qHTS curve class, negative sign = inhibitory curve
[6] = confirmatory screen, read-out: CONFIRMATORY SCREEN IC50
[7] = qHTS FP screen hits, Table S2, negative = inhibition
[8] = qHTS FP screen hits, Table S2, one class per curve where COUNT > 1, negative sign = inhibitory curve
[9] = qHTS FP screen hits, Table S2, read-out: IC50
[10] = qHTS primary screen hits, Table S2, read-out: IC50
[11] = qHTS primary screen hits, Table S2, negative = inhibition
[12] = Table S3, counterscreen, qHTS curve class, a negative sign marks inhibitory curves
[13] = Table S3, counterscreen, negative = inhibition
[14] = Table S3, confirmatory screen, qHTS curve class, a negative sign marks inhibitory curves
[15] = Table S3, confirmatory screen, negative = inhibition
[16] = qHTS primary screen hits, Table S2, negative sign = inhibitory curve, several classes where COUNT > 1

Row | SMILES | 384-well SCREEN Efficacy (%) ([3]; F-αIIb peptide) | 384-well SCREEN Confirm? ([3]; F-αIIb peptide, YES/NO) | IC50 ([3]; F-αIIb peptide) | 384-well COUNTERSCREEN Efficacy (%) ([4]; F-scrambled peptide) | IC50 ([4]; F-scrambled peptide) | Efficacy (%) [2, 7] | Curve Class [2, 8] | IC50 [2, 9] | IC50 [2, 10] | Efficacy (%) [2, 11] | Curve Class (counterscreen) [1, 12] | Efficacy (%) (counterscreen) [1, 13] | Curve Class (confirmatory screen) [2, 14] | Efficacy (%) (confirmatory screen) [2, 15] | other results
1 | C=CCNc1oc(-c2cccc3ccccc23)nc1C#N.O=C(O)C(F)(F)F [NCGC00068824-04] | 71% | YES | 4 µM | 51% | 4.5 µM | -38% | -1.2 | 17.8 µM |  |  |  |  |  |  | COUNTERSCREEN Efficacy (%) ([1]; scrambled-peptide counterscreen): -19%; COUNTERSCREEN Confirm? ([1]; scrambled-peptide counterscreen, YES/NO call): YES; COUNTERSCREEN Curve Class ([1]; scrambled-peptide counterscreen, qHTS curve class): 4; CONFIRMATORY SCREEN Confirm? ([2]; confirmatory screen, YES/NO call): YES; CONFIRMATORY SCREEN Curve Class [2, 5]: -1.2; CONFIRMATORY SCREEN Efficacy (%) ([2]; confirmatory screen, negative = inhibition): -78%; IC50 [2, 6]: 15.8 µM
2 | CN1CCCN=C1/C=C/c1cccs1 [NCGC00094552-04] |  |  | > 120 µM |  | 4.6 µM |  |  |  | 24.1 µM |  |  |  |  |  | IC50 [2, 6]: 50.1 µM
3 | O=[N+]([O-])c1ccc2c(c1)S(=O)(=O)C=C2 [NCGC00167848-02] |  |  | 120 µM |  | > 120 µM |  |  |  | 0.7 µM |  |  |  |  |  | Curve Class [2]: -1.4; Efficacy (%) [2]: -37%; 384-well SCREEN Confirm? [3]: YES; 384-well SCREEN Efficacy (%) [3]: 50%; 384-well COUNTERSCREEN Efficacy (%) [4]: 45%
4 | O=C(O)c1cnn(-c2nc3cc(Cl)c(OC(F)(F)F)cc3[nH]2)c1 [NCGC00484069-01] |  |  |  |  |  | -33% | -1.2 | 28.2 µM |  |  |  |  |  |  | Efficacy (%) (counterscreen) ([1]; counterscreen): -15%; Confirm? (counterscreen) ([1]; counterscreen, YES/NO): YES; Curve Class (counterscreen) ([1]; counterscreen, qHTS curve class, negative sign = inhibitory curve): 4; Efficacy (%) (confirmatory screen) ([2]; confirmatory screen): -39%; Confirm? (confirmatory screen) ([2]; confirmatory screen, YES/NO): YES; Curve Class (confirmatory screen) [2, 5]: -2.4; IC50 ([2]; confirmatory screen, read-out: IC50 [μM] (confirmatory screen)): 44.7 µM
5 | Nc1nc2c(s1)C(c1ccccc1C(F)(F)F)CC(=O)N2.O=C(O)C(F)(F)F (stereo not shown) [NCGC00488247-02] |  |  |  |  |  | -83% | -2.2 | 44.7 µM |  |  | -2.4 | -39% | 4 | -12% | Confirm? (counterscreen) ([1]; Table S3, counterscreen, YES/NO call): YES; IC50 ([1]; Table S3, counterscreen): 28.2 µM
6 | O=C(O)C(F)(F)F.O=C1CC(c2ccccc2Cl)c2sc(N3CCOCC3)nc2N1 (stereo not shown) [NCGC00488256-02] |  |  |  |  |  |  |  |  | 79.4 µM | -72% | -2.2 | -77% | -2.4 | -49% | IC50 ([1]; Table S3, counterscreen): 31.6 µM; Confirm? (confirmatory screen) ([2]; Table S3, confirmatory screen, YES/NO call): YES; IC50 ([2]; Table S3, confirmatory screen, read-out: IC50 [μM] (confirmatory screen)): 50.1 µM; Curve Class [2, 16]: -2.2
7 | CNc1nc2c(s1)C(c1c(F)cccc1Cl)CC(=O)N2.O=C(O)C(F)(F)F (stereo not shown) [NCGC00488265-02] |  |  |  |  |  |  |  |  | 56.2 µM | -65% | 4 | 0% | 4 | -12% | Curve Class [2, 16]: -2.2

Second part, led by results:

Row | 384-well SCREEN Efficacy (%) ([3]; F-αIIb peptide) | 384-well SCREEN Confirm? ([3]; F-αIIb peptide, YES/NO) | IC50 ([3]; F-αIIb peptide) | 384-well COUNTERSCREEN Efficacy (%) ([4]; F-scrambled peptide) | IC50 ([4]; F-scrambled peptide) | SMILES | Efficacy (%) [2, 7] | Curve Class [2, 8] | IC50 [2, 9] | IC50 [2, 10] | Efficacy (%) [2, 11] | Curve Class (counterscreen) [1, 12] | Efficacy (%) (counterscreen) [1, 13] | Curve Class (confirmatory screen) [2, 14] | Efficacy (%) (confirmatory screen) [2, 15] | other results
8 |  |  | 1.7 µM |  | 3.3 µM | Cc1nc(/N=N\c2cc(S(=O)(=O)O)c3cc([N+](=O)[O-])cc(S(=O)(=O)O)c3c2)c(COP(=O)(O)O)c(C=O)c1O [NCGC00162294-03] |  |  |  | 7.9 µM |  |  |  |  |  | 
9 | 60% | YES | 1 µM | 60% | 1.3 µM | Nc1c(S(=O)(=O)[O-])cc(Nc2ccc(Nc3nc(Cl)nc(Nc4ccc(S(=O)(=O)O)cc4)n3)c(S(=O)(=O)O)c2)c2c1C(=O)c1ccccc1C2=O.[Na+] [NCGC00162329-02] |  |  |  | 1.4 µM | -64% |  |  |  |  | Curve Class ([2]; qHTS primary screen hits, Table S2, negative sign = inhibitory curve): -1.2
10 | 48% | YES | 15.8 µM | 34% | 14.1 µM | CN(C)[C@@H]1CCN(c2cccc(Nc3nn4c(=O)c5ccccc5nc4s3)c2)C1.Cl [NCGC00189223-01] |  |  |  |  |  |  |  |  |  | 

Reference: article PMC11249646, “Small-Molecule Disruptors of the Interaction between Calcium- and Integrin-Binding Protein 1 and Integrin αIIbβ3 as Novel Antiplatelet Agents” (ACS Pharmacology & Translational Science, 2024)
